Data taken from US8759073B2, “Method for effectively controlling harmful organisms in large-scale culture of microalgae” (ENN Science & Technology Development Co., Ltd., priority 2009, dated 2014).

Tested on: Oxyrrhis
Assay: Control of Oxyrrhis contamination in microalgae culture, microscope examination
Format: cell-based, Oxyrrhis sp
Description: If the contaminated alga liquid is identified as acid tolerant contamination, pH value is raised up with alkalis in the culture system of the microalgae and maintained for a period of time. The pH value cannot be higher than the maximal tolerable pH of the microalgae. […] In an embodiment, said alkali can be ammonia. In an embodiment, said alkali can be NaOH. In an embodiment, said alkali can be 1M NaOH. Depending on different pH requirements and different culture systems, alkalis with different concentrations can be used according to the agitation condition, as long as the transient pH is not too high to be harmful to microalgae, and dilution of the cell concentration in the culture system (caused by adding too much alkali solution) should also be avoided. […] In an embodiment, the pH of the culture system is adjusted to 11.5-12.0 with 1M NaOH or 1M ammonia. In an embodiment, the pH of the culture system is adjusted to 11.0-11.8 or 8.0-11.0 with 1M NaOH or 1M ammonia. In an embodiment, the pH of the culture system is adjusted to 8.0-11.0, 11.5-12.0 or 11.0-11.8 and maintained for 3 hours.
Microscope examination is always used as one of the bases for determining the growth status in the process of microalgae culture.
Chlorella sp. (purchased from FACHB collection, Wuhan Aquatic Research Institure, Chinses Academy of Sciences) was cultured in a 320 L bubbling reactor (manufactured by Longfang Jiangchuan plexiglass Co. Ltd., φ300 mm×2 m) out-of-doors under a sunlight film. The culture condition included: a temperature of about 25 °C, a humidity of 60%-80%, and an illumination of 8000-20000 lux. Modified SM (see Table 2) (pH 7.0-9.0 for the normal culture) was used. […] Then, CO2 was aerated to adjust pH to be 7.0-8.0.
Chlorella sp. (obtained from Jinan University) was cultured in a 320 L bubbling reactor (manufactured by Longfang Jiangchuan plexiglass Co. Ltd., φ300 mm×2 m) out-of-doors under a sunlight film (with a temperature of about 25 °C, a humidity of 60%-80%, and an illumination of 8000-20000 lux). Modified SM medium (see Table 2) was used. When Amoeba, Oxyrrhis and ciliate contaminations were observed is with an oil immersion lens (Nikon fluorescent invert microscope Ti series), pH was adjusted to 11.0-11.8 with 1M NaOH. […] Then, CO2 was aerated continuously to saturation (pH 5.6). […] Then air was sufficiently aerated.
Chlorococcum sp. (obtained from Qingdao Marine Institute) was cultured in a 60 L glass plate reactor (manufactured by Longfang Jiangchuan plexiglass Co. Ltd., OP=10 cm) under a sunlight film (with a temperature of about 25 °C, a humidity of 60%-80%, and an illumination of 8000-20000 lux) (pH 8.0-9.0 for the normal culture). Modified BG11 medium (see Table 3) was used. […] Then CO2 was aerated and pH was adjusted to 7.0-8.0.
Chlorococcum sp. (obtained from Qingdao Marine Institute) was cultured in a 60 L glass plate reactor (manufactured by Longfang Jiangchuan plexiglass Co. Ltd., OP=10 cm) under a sunlight film (with a temperature of about 25 °C, a humidity of 60%-80%, and an illumination of 8000-20000 lux) (pH 8.0-9.0 for the normal culture). Modified BG11 medium (see Table 3) was used. […] One hour later, CO2 was aerated to saturation (about pH 5.6) for 24 hour continuously. […] Then air was sufficiently aerated.

Measured: Oxyrrhis, result of microscope examination

O=C=O [CO2, carbon dioxide]
no Amoeba or Oxyrrhis: Example 4, after 1M NaOH pH 11.0-11.8 1 h, CO2 to saturation (pH 5.6) 24 hours | Example 7, after 1M NaOH pH 11.5-12.0 1 h, CO2 to saturation (about pH 5.6) 24 hour | Example 10, after 1M NaOH pH 11.5-12.0 1 h, CO2 to saturation (about pH 5.8) 23 hour | Example 12, after 1M ammonia pH 9.0 1 h, CO2 to saturation (pH 5.6) 24 hours | Example 14, after 1M ammonia pH 9.0 1 h, CO2 to saturation (about pH 5.6) 24 hour | Example 15, after 1M ammonia pH 10.0 1 h, CO2 to saturation (about pH 5.8) 23 hour
